Measured values taken from patent publication EP4631940A1, “COMPOUND TARGETING PAN-KRAS PROTEIN DEGRADATION AGENT AND USE THEREOF” (Betta Pharmaceuticals Co., Ltd., priority 2022, dated 2024).
Like-named read-outs stand apart in the source and are kept apart here.

Columns and labels:
[1] = test system: AGS; assay: Cell proliferation experiment (CellTiter-Glo); format: cell-based; settings: Homo sapiens, AGS, 96 h, read-out: IC50(nM) AGS
[2] = test system: PK59; assay: Cell proliferation experiment (CellTiter-Glo); format: cell-based; settings: PK-59; PK59, KRAS mutation type G12D; 96 h incubation
[3] = test system: HCT116; assay: Cell proliferation experiment (CellTiter-Glo); format: cell-based; settings: Homo sapiens, HCT-116; HCT116, KRAS mutation type G13D; 96 h incubation
[4] = test system: SW620; assay: Cell proliferation experiment (CellTiter-Glo); format: cell-based; settings: Homo sapiens, SW-620, 96 h, read-out: IC50(nM) SW620
[5] = test system: H358; assay: Cell proliferation experiment (CellTiter-Glo); format: cell-based; settings: Homo sapiens, NCI-H358; H358, KRAS mutation type G12C; 96 h incubation
[6] = test system: H1975; assay: Cell proliferation experiment (CellTiter-Glo); format: cell-based; settings: Homo sapiens, NCI-H1975; H1975, KRAS WT; 96 h incubation
[7] = PK study in ICR mice (plasma); format: in vivo; settings: Female ICR mice, IV 1 mg/kg; for AUC(0-t) / C0 / half-life: mouse
Procedure: Example 9 PK Study of Compound in ICR Mice (plasma)
(§1) The compound was mixed with the vehicle (10% DMSO / 5% Solutol HS 15 / 85% saline), vortexed, and sonicated to prepare a clear solution at 0.2 mg/mL. Female ICR mice aged 6 to 7 weeks (non-fasted) were intravenously administered the compound. Plasma was collected at specified time points. Drug concentration was analyzed by LC-MS/MS, and pharmacokinetic parameters were calculated using Phoenix WinNonlin software (Pharsight Corporation, USA). Table 12 Mouse PK Data for Intravenous Compound Monotherapy

[8] = PK study in Beagle dogs (plasma); format: in vivo; settings: IV 1 mg/kg; for AUC(0-t) / C0 / half-life: dog
Procedure: Example 10 PK Study of Compound 135 in Beagle Dogs
as §1, with “Compound 135” for “The compound”, “0.5” for “0.2”, “Beagle dogs weighing approximately 10 kg (equal number of males and females, non-fasted)” for “Female ICR mice aged 6 to 7 weeks (non-fasted)”, “13 Beagle Dog” for “12 Mouse”

[9] = test system: PK-59 cells; assay: Anti-tumor effects in a human pancreatic cancer xenograft model carrying KRAS^G12D mutation; format: in vivo, BALB/c Nude Crlj mice; settings: PK-59 xenograft; for TGI After 4 Weeks of Administration (%): tail vein
[10] = molecular target: T1, KRAS G12D (Homo sapiens, UniProt P01116, G12D)
[11] = in vitro; settings: human, microsomes
[12] = in vitro; settings: rat, microsomes
[13] = in vitro; settings: mouse, microsomes
[14] = in vitro; settings: dog, microsomes
[15] = molecular target: T1, KRAS G12D; assay: cell-based; settings: AGS
[16] = PK study in Balbc mice (whole blood); format: in vivo; settings: Female Balbc mice, IV 1 mg/kg
Procedure: Example 7 PK Study of Compound 2 in Balbc Mice
as §1, with “Compound 2” for “The compound”, “Balbc” for “ICR”, “Compound 2. Whole blood” for “the compound. Plasma”, “10” for “12”, “Compound 2” for “Compound”

[17] = not given; remark: listed apart in the source
[18] = molecular target: T2, KRAS G12V (Homo sapiens, UniProt P01116, G12V); assay: Western blot study of KRAS degradation in SW620 cells; format: cell-based; settings: 3 h incubation
T2 construct: endogenous in cells; host or cells: SW620

[19] = molecular target: T3, KRAS G13D (Homo sapiens, UniProt P01116, G13D); assay: Western blot study of KRAS degradation in HCT116 cells; format: cell-based; settings: 3 h incubation
T3 construct: endogenous in cells; host or cells: HCT116

[20] = molecular target: T1, KRAS G12D; assay: Western blot study of KRAS degradation in AGS cells; format: cell-based; design: endogenous in cells; host or cells: AGS; settings: 3 h incubation

T1 sequence (P01116 1-188 isoform P01116-2 G12D): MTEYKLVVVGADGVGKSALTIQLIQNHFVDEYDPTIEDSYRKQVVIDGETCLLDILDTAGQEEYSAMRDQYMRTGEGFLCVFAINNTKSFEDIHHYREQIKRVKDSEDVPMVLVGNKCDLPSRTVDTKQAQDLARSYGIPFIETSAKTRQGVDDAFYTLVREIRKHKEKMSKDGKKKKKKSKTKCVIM
T2 sequence (P01116 1-188 isoform P01116-2 G12V): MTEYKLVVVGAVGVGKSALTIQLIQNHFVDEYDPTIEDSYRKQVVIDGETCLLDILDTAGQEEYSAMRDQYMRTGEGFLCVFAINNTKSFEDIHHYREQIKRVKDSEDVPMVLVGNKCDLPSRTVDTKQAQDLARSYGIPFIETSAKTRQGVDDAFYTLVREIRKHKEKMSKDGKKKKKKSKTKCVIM
T3 sequence (P01116 1-188 isoform P01116-2 G13D): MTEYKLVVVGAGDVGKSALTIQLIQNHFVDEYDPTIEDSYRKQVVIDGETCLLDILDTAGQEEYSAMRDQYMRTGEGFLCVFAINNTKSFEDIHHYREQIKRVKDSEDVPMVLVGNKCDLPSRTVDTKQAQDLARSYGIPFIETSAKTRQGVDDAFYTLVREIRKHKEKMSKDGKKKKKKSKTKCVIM

| SMILES | IC50 [1] [nM] | IC50 [2] [nM] | IC50 [3] [nM] | IC50 [4] [nM] | IC50 [5] [nM] | IC50 [6] [nM] | Cl_obs [7] [mL/min/kg] | Vss_obs [7] [L/kg] | AUC(0-t) [7] [ng·h/mL] | C0 [7] [ng/mL] | half-life [7] [h] | Cl_obs [8] [mL/min/kg] | Vss_obs [8] [L/kg] | AUC(0-t) [8] [ng·h/mL] | DC50 [10] [nM] | microsomal CLint [11] [µL/min/mg] | microsomal CLint [12] [µL/min/mg] | microsomal CLint [13] [µL/min/mg] | microsomal CLint [14] [µL/min/mg] | Dmax [15] [%] | other results |
| --- | --- | --- | --- | --- | --- | --- | --- | --- | --- | --- | --- | --- | --- | --- | --- | --- | --- | --- | --- | --- | --- |
| CCc1c(F)ccc2cc(O)cc(-c3ncc4c(N5CCC[C@@](C)(O)C5)nc(OCC5(CN6CCC(Oc7ccc(-c8cn([C@H](C(=O)N9C[C@H](O)C[C@H]9C(=O)N[C@@H](C)c9ccc(-c%10scnc%10C)cc9)C(C)C)nn8)cn7)CC6)CC5)nc4c3F)c12 [Compound 135] | 5.2 | 14.7 | 33 | 39 | 7.3 | > 10000 | 5.80 | 1.61 | 2750 | 5840 | 6.92 | 5.74 | 2.23 | 2780 | 14 | 11.3 | 1.5 | 13.2 | 26.9 | 95 | C0 [8]: 11000 ng/mL; half-life [8]: 21.4 h; TGI After 4 Weeks of Administration (%) ([9]; 1 mg/kg, QW): 70%; TGI After 4 Weeks of Administration (%) ([9]; 3 mg/kg, QW): 92%; TGI After 4 Weeks of Administration (%) ([9]; 10 mg/kg, QW): 106%; TGI After 4 Weeks of Administration (%) ([9]; 20 mg/kg, Q2W): 101%; TGI at 20 mg/kg once every two weeks versus 10 mg/kg once weekly ([9]; 4 weeks of administration): comparable TGI |
| CCc1c(F)ccc2cc(O)cc(-c3ncc4c(N5CCC[C@@](C)(O)C5)nc(OCC5(CN6CCN(c7ccc(-c8cn([C@H](C(=O)N9C[C@H](O)C[C@H]9C(=O)N[C@@H](C)c9ccc(-c%10scnc%10C)cc9)C(C)C)nn8)cn7)CC6)CC5)nc4c3F)c12 [Compound 142] | 10 | – | – | – | – | – | 7.32 | 0.854 | 2300 | 9460 | 4.1 | – | – | – | 6.3 | 11.1 | – | 17.7 | 14.2 | 95 | The in vitro intrinsic clearance in liver microsomes (CLint, in vitro, µL/min/mg protein) Rat: 0.0 µL/min/mg protein |
| CCc1c(F)ccc2cc(O)cc(-c3ncc4c(N5CCCC(C)(O)C5)nc(OC[C@]56CCCN5[C@@H](COC(=O)N5CCC7(CC5)CC(C(=O)N[C@H](C(=O)N5C[C@H](O)C[C@H]5C(=O)N[C@@H](C)c5ccc(-c8scnc8C)cc5)C(C)(C)C)C7)CC6)nc4c3F)c12 (stereo partly drawn) [Compound 2, ((3R,7aR)-7a-(((7-(8-ethyl-7-fluoro-3-hydroxynaphthalen-1-yl)-8-fluoro-4-(3-hydroxy-3-methylpiperidin-1-yl)pyrido[4,3-d]pyrimidin-2-yl)oxy)methyl)hexahydro-1H-pyrrolizin-3-yl)methyl 2-(((S)-1-((2S,4R)-4-hydroxy-2-(((S)-1-(4-(4-methylthiazol-5-yl)phenyl)ethyl)carbamoyl)pyrrolidin-1-yl)-3,3-dimethyl-1-oxobutan-2-yl)carbamoyl)-7-azaspiro[3.5]nonane-7-carboxylate] | 44 | – | – | 501 | 143 | – | – | – | – | – | – | – | – | – | – | 31 | 11.6 | 16.6 | – | 95 | Cl_obs [16]: 3.77 mL/min/kg; Vss_obs [16]: 0.586 L/kg; AUC(0-t) ([16]; mouse): 4380 ng·h/mL; C0 ([16]; mouse): 8790 ng/mL; half-life ([16]; mouse): 6.49 h; DC50 ([10]; AGS cell line, In Cell Western Blotting, KRAS^G12D vs GAPDH): 316 nM; The in vitro intrinsic clearance in liver microsomes (CLint, in vitro, µL/min/mg protein) Dog [17]: 0.0 µL/min/mg protein |
| CCc1c(F)ccc2cc(O)cc(-c3ncc4c(N5CCC[C@@](C)(O)C5)nc(OCC5(CN6CCC(Oc7cnc(-c8cn([C@H](C(=O)N9C[C@H](O)C[C@H]9C(=O)N[C@@H](C)c9ccc(-c%10scnc%10C)cc9)C(C)C)nn8)cn7)CC6)CC5)nc4c3F)c12 [Compound 144] | 3 | 4.4 | 13 | 8.4 | 5 | > 10000 | 5.81 | 1.54 | 2730 | 5530 | 9.34 | 6.19 | 3.46 | 2520 | 1.1 | 18.8 | 6.2 | 10.9 | 7.4 | 95 | C0 [8]: 9890 ng/mL; half-life [8]: 20.5 h; TGI After 4 Weeks of Administration (%) ([9]; 1 mg/kg, QW): 82%; TGI After 4 Weeks of Administration (%) ([9]; 3 mg/kg, QW): 93%; TGI After 4 Weeks of Administration (%) ([9]; 10 mg/kg, QW): 113%; KRAS G12V protein degradation (Western blot, Fig. 5) [18]: effectively degraded; KRAS G13D protein degradation (Western blot, Fig. 5) [19]: effectively degraded; KRAS G12D protein degradation (Western blot, Fig. 5) [20]: effectively degraded |
